Numbered stars: 1 amine (or outer) side, 2 acyl side, 3 side chain; on linkers, the order of the positions; unused ones are H or OH. Bridge positions count the residues as written; N and C are the ends. Square brackets hold non-standard residues; d marks the D form. Peptide text beside a SMILES is read from it. Phe(4-F) = N[C@@H](Cc1ccc(F)cc1)C(=O)O; X1 = CCCCCCC[C@H](N[*:1])C(=O)[*:2]; Nle = CCCC[C@H](N)C(=O)O; X2 = C(C[*:1])C[*:2]; βAla = NCCC(=O)O Some results are limits rather than exact numbers.

Data set [1] in a line: Translocation to blood cells. The conditions noted are these: whole blood (Fig. 4D). Format: in vitro ADME.
Data set [2] is described as follows: Plasma protein binding (dialysis). Format: in vitro ADME. As to conditions: dialysis of plasma against PBS pH 7.4, 5 h, 37 °C, LC-MS/MS, human and mouse plasma (Fig. 4E). As for the experimental part: (§1) Experimental procedures that involved animals and their care were conducted in compliance with the Guide for the Care and Use of Laboratory Animals[15] and ARRIVE guidelines[16],[17]. Animal experiments were approved by the Animal Care and Use Committee of Osaka University (approval No. DouyakuR01-3–1) and conducted at Osaka University in accordance with the guidelines. LC–MS/MS data were obtained using a Xevo TQ-S mass spectroscopy system (Waters Corp., Milford, MA, USA) connected to an ACQUITY UPLC system (Waters) equipped with a BEH C18 column (1.7 μm, 2.1 × 50 mm, Waters). Mobile phase A was 0.1% formic acid in water and mobile phase B was 0.1% formic acid in acetonitrile. The gradient elution profile was 2% B at 0 min to 98% B at 1.8 min, and the flow rate was 0.5 mL/min.
For evaluation of plasma protein binding, the plasma compartment containing KS-58 was dialyzed against PBS (pH 7.4) for 5 h at 37 °C and the concentrations remaining in each compartment were quantified by LC–MS/MS.

The nature of data set [3]: Systemic safety in CT26 tumor-bearing mice (body and organ weights, kidney and liver histomorphology). It is filed as in vivo, mouse. As to the method:
Experimental procedures that involved animals and their care were conducted in compliance with the Guide for the Care and Use of Laboratory Animals[15] and ARRIVE guidelines[16],[17]. Animal experiments were approved by Animal Care and Use Committee of UNITECH Co. Ltd. (Kashiwa, Japan) (approval No. AGR IMF-210415A-30) and conducted at UNITECH in accordance with the guidelines. To establish subcutaneous allograft tumors, 1 × 10^6 CT26 cells/100 µL were subcutaneously injected into the left groin region of BALB/cCrSlc female mice (7 weeks old; Japan SLC, Inc., Shizuoka, Japan). Immediately before treatment, KS-58 was dissolved in DMSO and then diluted tenfold in normal saline. Tumor-baring mice in vehicle control, KS-58 (low), and KS-58 (high) groups were injected intravenously with vehicle (1:10 DMSO to saline, v/v), 10 mg/kg KS-58 solution, or 40 mg/kg KS-58 solution, respectively, once every 2 days for 17 days (n = 8 mice per major group, n = 3 mice per satellite group) (Fig. 1B). For anti-PD-1 monotherapy or combination treatment, GoInVivo Purified anti-mouse PD-1 (CD279, Cat.#114114, BioLegend, San Diego, CA, USA) was dissolved in PBS and injected intraperitoneally at 50 mg/kg on days 6, 8, and 10 (n = 8 mice in major groups, n = 3 in satellite groups). Tumor growth rate was recorded on day 1, 4, 8, 11, 15, and 17 by measuring the major and minor axes with a digital caliper. Measurements were transformed into tumor volumes using the formula tumor volume (mm^3) = major axis × minor axis^2 × 0.5. Tumors (with surrounding skin), liver, and kidneys were collected from satellite groups on day 15, fixed in formalin, and then maintained in 70% ethanol for histological analyses. Tumor, liver, and kidneys were collected from major groups on day 17 within 3 h of the last injection and weighed. The tumors were subsequently frozen in liquid nitrogen and stored at − 80 °C until homogenization for Western blotting.
Tumors, livers, and kidneys were harvested from mice and fixed with 10% neutral-buffered formalin. […]

A short description of data set [4]: Stability in mouse whole blood. It is filed as in vitro ADME. The conditions noted are these: fresh whole blood, 37 °C, 2 h incubation, LC-MS/MS, read-out: fraction of initial concentration intact in whole blood. As for the experimental part:
as §1
(§2) For evaluation of stability, KS-58 was incubated with commercial hepatic microsomes (XenoTech Ltd, KS, USA) in X medium supplemented with nicotinamide adenine dinucleotide phosphate for 10 and 60 min at 37 °C. The fraction (%) remaining in the medium was determined using the LC–MS/MS system (Waters). We also examined the fraction (%) remaining in fresh mouse blood after 60 and 120 min of incubation at 37 °C using the same LC–MS/MS system.

Data set [5] is described as follows: Stability in human liver microsomes. It is filed as in vitro ADME. The conditions noted are these: human hepatic microsomes (XenoTech), with NADP cofactor, 37 °C, 1 h incubation, LC-MS/MS, read-out: fraction of initial concentration remaining in human liver microsomes. As for the experimental part:
as §1, §2
(Microsomes from liver hold many membrane-bound enzymes, among them those of drug oxidation.)

Data set [6] is described as follows: Stability in mouse liver microsomes. The conditions noted are these: mouse hepatic microsomes (XenoTech), with NADP cofactor, 37 °C, 1 h incubation, LC-MS/MS, read-out: fraction of initial concentration remaining in mouse liver microsomes. Format: in vitro ADME. As for the experimental part:
as §1, §2

Data set [7] can be described thus: Pharmacokinetics after intravenous injection. Format: in vivo, mouse. The conditions noted are these: 10 mg/kg i.v., LC-MS/MS. As for the experimental part:
as §1
For pharmacokinetics studies, KS-58 was dissolved in saline and administered intravenously to female BALB/c mice at 10 mg/kg. Serial blood samples (20 μL) were collected from the tail vein using heparinized tips at 7.5, 15, 30, 60, 120, 240, 320, and 1440 min after KS-58 administration. Aliquots (5 μL) of plasma obtained from each blood sample were treated with 50 μL acetonitrile and the organic layer was injected onto the LC–MS/MS system. Pharmacokinetic parameters were obtained by fitting the plasma concentration–time data to a noncompartmental model using PKPlus software (Northern Science Consulting Inc, Sapporo, Japan).

The conditions of data set [8]: estimated using RP-HPLC; cited from earlier work.
[9] abbreviates: satellite groups, day 15, HE staining, n = 3.

Take `CCCCCCC[C@@H]1NC(=O)[C@@H]2CSCCCSC[C@@H](NC(=O)[C@H](Cc3c[nH]c4ccccc34)NC(=O)[C@@H]3CCCN3C(=O)[C@H](CC(=O)O)NC(=O)[C@H](Cc3ccc(F)cc3)NC(=O)[C@H](CO)NC1=O)C(=O)NCCC(=O)N1CCC[C@H]1C(=O)N[C@@H](CCCC)C(=O)N2` [KS-58] (cyclo([βAla]P[Nle]C[X1]S[Phe(4-F)]DPW[dC]); linker 4-11 via X2): the “translocation into blood cells” value in data set [1] was “a substantial fraction of KS-58 was translocated into blood cells”. In addition, the “fraction bound to plasma proteins” value in data set [2] is on record as “more than 90%”. For the same molecule, the fraction unbound at 5 h in data set [2] (read-out: free fraction in plasma) is less than 0.1. Moreover, in data set [3] (KS-58 10 or 40 mg/kg i.v. every 2 days for 17 days, n = 8), the “body weight gain/loss and weights of liver and kidney vs vehicle controls” value was “neither body weight gain/loss (Fig. 2B) nor the weights of liver and kidney (Fig. 2C) were significantly altered”. Besides, the kidney histomorphology result in data set [3] (setting [9]) is “No obvious histological changes in any of the nephron segments”. Further, the liver histomorphology entry in data set [3] (setting [9]) was “hepatocellular hypertrophy with cytoplasmic eosinophilic change”. The remaining at 2 h in data set [4] was determined as 92.3%. For the same molecule, the remaining at 1 h was found to be 77% in data set [5] and 46.2% in data set [6]. The “time at which plasma concentration decreased to ~50% of the initial concentration” value in data set [7] (mice) is “about 30 min”. Moreover, in data set [7] (mice, limit of detection ~250 nM), the “plasma concentration after 4 h” value is given as “below the limit of detection”. In addition, the half-life (as a rule, how long it takes for the measured level to halve) in data set [7] (mouse, iv, female BALB/c mice, plasma, noncompartmental, mean ± SD, n = 3) was approximately 30 min. Besides, the “half-life in whole blood” value in data set [8] is given as ~ 60 min.

Source of the values: paper PMC9114382, “The K-Ras(G12D)-inhibitory peptide KS-58 suppresses growth of murine CT26 colorectal cancer cell-derived tumors” (Scientific Reports, 2022).
